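96-well plates; 48 h exposure; 5 concentrations. Endpoints by linear interpolation between flanking doses. Not reached: highest tested concentration assigned. The concentration for 50% growth inhibition is given as GI50. The concentration for full growth arrest is given as TGI.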
Columns and labels:
Test in all cases: NCI tumour cell line growth inhibition, 48 h
K-562 leukemia = system: K-562 leukemia
LOX IMVI melanoma = system: LOX IMVI melanoma
RPMI-8226 leukemia = system: RPMI-8226 leukemia
RXF 393 renal = system: RXF 393 renal
SF-295 CNS = system: SF-295 CNS
UACC-62 melanoma = system: UACC-62 melanoma
PC-3 prostate = system: PC-3 prostate
SF-539 CNS = system: SF-539 CNS
U251 CNS = system: U251 CNS
T-47D breast = system: T-47D breast

Row | SMILES | TGI (K-562 leukemia) [µM] | TGI (LOX IMVI melanoma) [µM] | TGI (RPMI-8226 leukemia) [µM] | TGI (RXF 393 renal) [µM] | TGI (SF-295 CNS) [µM] | TGI (UACC-62 melanoma) [µM] | GI50 (K-562 leukemia) [µM] | GI50 (LOX IMVI melanoma) [µM] | GI50 (PC-3 prostate) [µM] | TGI (PC-3 prostate) [µM] | GI50 (RPMI-8226 leukemia) [µM] | GI50 (RXF 393 renal) [µM] | GI50 (SF-295 CNS) [µM] | GI50 (SF-539 CNS) [µM] | TGI (SF-539 CNS) [µM] | GI50 (U251 CNS) [µM] | TGI (U251 CNS) [µM] | GI50 (UACC-62 melanoma) [µM] | TGI (T-47D breast) [µM] | GI50 (T-47D breast) [µM]
1 | CN1CCN(c2nc(N)c(Br)c(Cl)n2)CC1 | > 100 | > 100 | > 100 | > 100 | > 100 | > 100 |  |  |  |  |  |  |  |  |  |  |  |  |  | 
2 | CSc1ccc(C(=O)/C=C/c2ccc(Cl)cc2Cl)cc1 | 49.5 | 37 | 37.7 | 36.2 | > 100 | 78.5 | 6.48 | 20 | 39.6 | > 100 | 14.7 | 16.4 | 29.5 | 22 | 46.9 | 16.9 | 32 | 24.3 |  | 
3 | CC(=O)CC(=O)Nc1ccccc1C(F)(F)F | > 100 | > 100 | > 100 | > 100 |  | > 100 |  |  |  |  |  |  |  |  | > 100 |  | > 100 |  |  | 
4 | CC(=O)[CH-]C(=O)c1ccccc1.CC(=O)[CH-]C(=O)c1ccccc1.CC(=O)[CH-]C(=O)c1ccccc1.[Ga+3] | 51.5 | 31.7 | 37.1 | 48 | 47.5 | 30 | 16.9 | 16.3 |  |  | 12.1 | 29.1 | 23.3 | 16.5 | 32.3 | 12.7 | 25.8 | 16.4 |  | 
5 | Cc1ccc(Nc2nc(-c3ccc(-c4ccc([N+](=O)[O-])cc4)o3)cs2)cc1 | > 100 | > 100 | > 100 |  | > 100 | > 100 |  |  |  |  |  |  |  |  | > 100 |  | > 100 |  |  | 
6 | C=CCSC(C)=O | > 100 | > 100 | > 100 |  | > 100 | > 100 |  |  |  | > 100 |  |  |  |  | > 100 |  | > 100 |  | > 100 | 
7 | COc1ccc(C(=O)C(C(=O)C(=O)NCCCNC(=O)C(=O)C(C(=O)c2ccc(OC)cc2)c2ccc(OC)cc2)c2ccc(OC)cc2)cc1 (stereo not drawn) | > 100 | > 100 | > 100 |  | > 100 | > 100 |  |  |  |  |  |  |  |  | > 100 |  | > 100 |  |  | 
8 | Cc1cc(Br)ccc1N=Nc1c(C)nn(-c2ccccc2)c1-c1ccccc1 | > 100 | > 100 | > 100 | > 100 | > 100 | > 100 |  |  |  |  |  |  |  |  | > 100 |  | > 100 |  |  | 
9 | O=C(NC1=C(Cl)C(=O)c2ccccc2C1=O)C(=O)C(C(=O)c1ccc2ccccc2c1)C1OC(=O)c2ccccc21 (stereo not drawn) | 25.6 | 11.2 | 26.2 | 12.8 | 14.9 | 4.31 |  |  |  |  |  |  |  |  | 9.66 |  | 18.5 |  | 29.3 | 
10 | CCN(CC)c1ccc(C2N3CCCCC3[C@@H]3c4[nH]c5ccccc5c4CCN23)cc1 (stereo partly drawn) | 61.3 |  | > 100 | 44.1 | > 100 | 36.6 |  |  |  |  |  |  |  |  | 41.6 |  | > 100 |  |  | 
11 | CN(C)N=Nc1ccc(S(N)(=O)=O)cc1 | > 100 | > 100 | > 100 |  | > 100 | > 100 |  |  |  |  |  |  |  |  | > 100 |  | > 100 |  |  | 
12 | CC12CCc3ccccc3C1=NNC(=O)C2 (stereo not drawn) | > 100 | > 100 | > 100 | > 100 | > 100 |  |  |  |  |  |  |  |  |  | > 100 |  | > 100 |  |  | 
13 | CC1=C2C=CC(=O)C[C@@]2(C)CCC1 | > 100 | > 100 | > 100 | > 100 | > 100 | > 100 |  |  |  |  |  |  |  |  | > 100 |  | > 100 |  |  | 
14 | COc1cc(-c2ccc[nH]2)[nH]c1/C=C1\N=C(C)C(CC(=O)OCC(C)(C)C)=C1C | 1.37 | 0.467 |  | 1.21 | 0.51 | 0.555 | 0.34 | 0.0733 | 0.1 | 1.65 |  | 0.258 | 0.171 | 0.357 | 1.6 | 0.141 | 1.23 | 0.211 | 0.887 | 0.157
15 | COc1cc(O)c(C(=O)/C=C/c2ccc(OC)c(OCc3ccccc3)c2)c(OC)c1 | > 100 | > 100 | > 100 | > 100 | 2.43 | 7.33 |  |  |  |  |  |  |  |  | > 100 |  | > 100 |  |  | 
16 | NC(=O)c1ncn(C2OC(CO)C(O)C2O)c1O (stereo not drawn) | > 100 | > 100 | > 100 | > 100 | > 100 | > 100 |  |  |  |  |  |  |  |  | > 100 |  | > 100 |  |  | 
17 | CC(=O)OCC1OC(n2c(=S)n(-c3ccccc3)c(=O)c3cc(Br)ccc32)C(OC(C)=O)C1OC(C)=O (stereo not drawn) |  | > 100 | > 100 | > 100 | > 100 | > 100 |  |  |  |  |  |  |  |  | > 100 |  | > 100 |  |  | 
18 | C[C@]12CCC(=O)C[C@@H]1CC[C@@H]1[C@@H]2CC[C@]2(C)[C@@H](OC(=O)N(CCCl)N=O)CC[C@@H]12 | > 43.4 | 15.4 | 6.89 |  | > 45.4 | 11.7 | 2.69 | 0.625 | 1.1 |  | 2.02 |  | 0.133 | 0.069 | 4.67 | 0.394 | 14 | 0.377 | 30 | 2.91
19 | O=C(C(=CN1CCN(C(=O)c2ccco2)C1=S)C(=O)c1ccccc1)c1ccccc1 | > 50 | 4.1 | > 50 | 14.8 | 33 | 18.3 | 3.24 | 1.22 | 23.6 | > 50 | 8.41 | 5.84 | 11.1 |  |  | 2.66 | 25.8 | 6.93 | > 50 | > 50
20 | O=C1[C@@H]2C(c3ccccc3[N+](=O)[O-])=NO[C@@H]2C(=O)N1c1ccc(Cc2ccc(N3C(=O)[C@H]4C(c5ccccc5[N+](=O)[O-])=NO[C@H]4C3=O)cc2)cc1 | > 100 | > 100 | > 100 | > 100 | > 100 | > 100 |  |  |  |  |  |  |  |  | > 100 |  | > 100 |  |  | 
21 | O=C(N/C(=C\c1ccc(/C=C(\NC(=O)c2ccccc2)c2nc3c(O)nc(S)nc3[nH]2)cc1)c1nc2c(O)nc(S)nc2[nH]1)c1ccccc1 | > 100 | > 100 | > 100 | > 100 | > 100 | > 100 |  |  |  |  |  |  |  |  | > 100 |  | > 100 |  |  | 
